Read-outs that look alike come from different tables or passages of the source. Where a SMILES comes first, the peptide text is derived from it. The star is where a group is joined. Cbz = O=C(OCc1ccccc1)*
Key:
recombinant porcine PREP = molecular target: T1, recombinant porcine PREP (Sus scrofa, UniProt P23687); experiment: PREP activity assay (inhibition of proteolytic activity); assay type: biochemical
T1 construct: made in house

[1] = test system: HEK-293 cells stably expressing GFP-LC3B; experiment: Autophagic flux (GFP-LC3B reporter cells)
[2] = test system: ROS production in SH-SY5Y cells; experiment: ROS detection assay under oxidative stress; conditions: Homo sapiens, 3 h
[3] = test system: αSyn dimerization in Neuro2A (N2A) cells; experiment: αSyn-dimerization assay (split Gaussia luciferase PCA); conditions: for activity at 10 µM: Mus musculus, N2a; for effect on αSyn dimerization (in words): 10 μM, N2A cells
[4] = supplementary CSV, read-out: IC50
[5] = Homo sapiens, HEK293, 24 h, read-out: Autophagy at 10 uM (%)
[6] = Homo sapiens, HEK293, 24 h, read-out: autophagy at 10 μM (%)
[7] = read-out: aSyn dimerization at 10 uM (%)
[8] = read-out: αSyn dimer. at 10 μM (%)
[9] = Suc-Gly-Pro-AMC as substrate, 95% CI in brackets, read-out: IC50 (nM) (95% CI)
[10] = Homo sapiens, HEK293, 24 h, read-out: GFP signal of the DMSO control (autophagic flux)
[11] = read-out: ROS production, % of the control
[12] = read-out: luminescence signal compared to the DMSO control (αSyn dimerization)

T1 sequence (P23687 whole entry): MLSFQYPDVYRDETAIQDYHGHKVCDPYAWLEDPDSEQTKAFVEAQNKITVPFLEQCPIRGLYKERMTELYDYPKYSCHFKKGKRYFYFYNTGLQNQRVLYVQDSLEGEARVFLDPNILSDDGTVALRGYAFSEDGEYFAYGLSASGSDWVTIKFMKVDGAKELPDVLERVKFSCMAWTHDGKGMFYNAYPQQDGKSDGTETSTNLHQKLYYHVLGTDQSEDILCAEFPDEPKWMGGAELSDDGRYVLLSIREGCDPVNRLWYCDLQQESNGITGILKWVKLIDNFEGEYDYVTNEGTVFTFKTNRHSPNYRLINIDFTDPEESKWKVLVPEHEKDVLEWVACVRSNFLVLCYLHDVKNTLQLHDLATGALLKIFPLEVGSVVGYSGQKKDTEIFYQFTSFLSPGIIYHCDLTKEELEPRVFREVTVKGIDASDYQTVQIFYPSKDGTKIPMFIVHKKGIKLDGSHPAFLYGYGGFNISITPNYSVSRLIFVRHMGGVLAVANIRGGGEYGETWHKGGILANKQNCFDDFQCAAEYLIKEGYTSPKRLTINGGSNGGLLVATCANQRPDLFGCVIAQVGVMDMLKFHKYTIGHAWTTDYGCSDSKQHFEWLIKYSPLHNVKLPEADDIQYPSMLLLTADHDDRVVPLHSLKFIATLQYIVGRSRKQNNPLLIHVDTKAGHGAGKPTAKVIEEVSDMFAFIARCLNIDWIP

SMILES	inhibitory activity (in words) (recombinant porcine PREP)	IC50 (recombinant porcine PREP; [4])	activity at 10 µM [1, 5]	activity at 10 µM [1, 6]	activity at 10 µM ([2]; read-out: ROS at 10 uM (%))	activity at 10 µM ([2]; read-out: ROS at 10 μM (%))	activity at 10 µM [3, 7]	activity at 10 µM [3, 8]	IC50 (recombinant porcine PREP; [9])	activity at 10 µM [1, 10]	activity at 10 µM [2, 11]	effect on αSyn dimerization (in words) [3]	GFP signal compared to the DMSO control (in words) ([1]; 20 nM, autophagy inhibitor control)	activity at 0.5 µM [1, 10]	activity at 10 µM [3, 12]
Cc1oc(CCCc2ccccc2)nc1C(=O)N1CCC[C@H]1C#N [compound 33, (S)-1-(5-Methyl-2-(3-phenylpropyl)oxazole-4-carbonyl)pyrrolidine-2-carbonitrile]	very low inhibitory activities	12900 nM	97%	97 ± 5%	98%	98 ± 6%	109%	109 ± 6%	–	–	–	–	–	–	–
Cc1nc(CCC(=O)N2CCCCCC2)oc1N1CCC[C@H]1C#N [compound 24, (S)-1-(2-(3-(Azepan-1-yl)-3-oxopropyl)-4-methyloxazol-5-yl)pyrrolidine-2-carbonitrile]	–	–	84%	84 ± 5%	90%	90 ± 5%	117%	117 ± 9%	654 nM	≤ 88%	–	–	–	–	–
COc1cc(CCc2nc(C)c(N3CCC[C@H]3C#N)o2)cc(OC)c1 [compound 20, (S)-1-(2-(3,5-Dimethoxyphenethyl)-4-methyloxazol-5-yl)pyrrolidine-2-carbonitrile]	–	–	89%	89 ± 6%	76%	76 ± 8%	100%	100 ± 9%	1290 nM	–	< 88%	–	–	–	–
Cc1nc(Cc2ccccc2)oc1N1CCC[C@H]1C#N [compound 14, (S)-1-(2-Benzyl-4-methyloxazol-5-yl)pyrrolidine-2-carbonitrile]	–	–	97%	97 ± 6%	84%	84 ± 4%	99%	99 ± 8%	288 nM	–	< 88%	–	–	–	–
CC(C)(C)c1nc(CCCc2ccccc2)oc1N1CCC[C@H]1C#N [compound 9, (S)-1-(4-(tert-Butyl)-2-(3-phenylpropyl)oxazol-5-yl)pyrrolidine-2-carbonitrile]	further reduced inhibitory activities	415000 nM	103%	103 ± 3%	86%	86 ± 10%	92%	92 ± 6%	–	–	< 88%	–	–	–	–
Cc1nc(CCCc2ccccc2)oc1N(C)CC#N [compound 6, 2-(Methyl(4-methyl-2-(3-phenylpropyl)oxazol-5-yl)amino)acetonitrile]	very low inhibitory activities	12400 nM	96%	96 ± 3%	94%	94 ± 7%	109%	109 ± 6%	–	–	–	–	–	–	–
Cc1oc(CCCc2ccccc2)nc1C(=O)N1CCC[C@H]1C(N)=O [compound 32, (S)-1-(5-Methyl-2-(3-phenylpropyl)oxazole-4-carbonyl)pyrrolidine-2-carboxamide]	very low inhibitory activities	–	98%	98 ± 3%	–	–	–	–	> 1e+06 nM	–	–	–	–	–	–
N#C[C@@H]1CCCN1c1oc(CCCc2ccccc2)nc1C(=O)C(F)(F)F [compound 12, (S)-1-(2-(3-Phenylpropyl)-4-(2,2,2-trifluoroacetyl)oxazol-5-yl)pyrrolidine-2-carbonitrile]	strongly reduced inhibitory activity	209000 nM	98%	98 ± 2%	81%	81 ± 10%	104%	104 ± 5%	–	–	< 88%	–	–	–	–
CC(=O)N[C@@H](CSC(=O)[C@]1([C@@H](O)C(C)C)NC(=O)[C@H](C)[C@@H]1O)C(=O)O [lactacystin, reference compound]	–	–	–	–	–	–	–	–	–	–	–	significantly increased αSyn dimerization	–	–	–
Cc1nc(CCCCc2ccccc2)oc1N1CCC[C@H]1C#N [compound 16, (S)-1-(4-Methyl-2-(4-phenylbutyl)oxazol-5-yl)pyrrolidine-2-carbonitrile]	–	–	89%	89 ± 6%	–	–	108%	108 ± 2%	–	–	–	–	–	–	–
Cc1oc(CCCc2ccccc2)nc1C(=O)N1CCCC1 [compound 31, (5-Methyl-2-(3-phenylpropyl)oxazol-4-yl)(pyrrolidin-1-yl)methanone]	very low inhibitory activities	138000 nM	97%	97 ± 4%	–	–	117%	117 ± 11%	–	–	–	–	–	–	–
CO/C1=C\C(C)=C\[C@@H](C)[C@@H](O)[C@@H](C)C/C(C)=C/C=C/[C@H](OC)[C@@H]([C@@H](C)[C@@H](O)[C@H](C)[C@@]2(O)C[C@@H](O)[C@H](C)[C@@H](C(C)C)O2)OC1=O [bafilomycin A1, Bafilomycin A1, reference compound]	–	–	–	–	–	–	–	–	–	–	–	–	significant effect	–	–
CO[C@H]1C[C@@H]2CC[C@@H](C)[C@@](O)(O2)C(=O)C(=O)N2CCCC[C@H]2C(=O)O[C@H]([C@H](C)C[C@@H]2CC[C@@H](O)[C@H](OC)C2)CC(=O)[C@H](C)/C=C(\C)[C@@H](O)[C@@H](OC)C(=O)[C@H](C)C[C@H](C)/C=C/C=C/C=C/1C [rapamycin, reference compound]	–	–	–	–	–	–	–	–	–	–	–	–	–	65%	–
Cc1nc(CCCc2ccccc2)oc1N(CC#N)C(=O)C(F)(F)F [compound 5, N-(Cyanomethyl)-2,2,2-trifluoro-N-(4-methyl-2-(3-phenylpropyl)oxazol-5-yl)acetamide]	very low inhibitory activities	108000 nM	77%	77 ± 17%	–	–	112%	112 ± 6%	–	≤ 88%	–	–	–	–	–
N#Cc1nc(CCCc2ccccc2)oc1N1CCCC1 [compound 27, 2-(3-Phenylpropyl)-5-(pyrrolidin-1-yl)oxazole-4-carbonitrile]	very weak inhibitors	75400 nM	96%	96 ± 5%	–	–	88%	88 ± 6%	–	–	–	comparable effect as KYP-2047	–	–	–
N#Cc1nc(CCCc2ccccc2)oc1N [compound 26, 5-Amino-2-(3-phenylpropyl)oxazole-4-carbonitrile]	–	–	96%	96 ± 4%	–	–	73%	73 ± 15%	> 1e+06 nM	–	–	–	–	–	≤ 75%
CC(C)C[C@@H](C=O)NC(=O)[C@H](CC(C)C)NC(=O)[C@H](CC(C)C)NC(=O)OCc1ccccc1 [MG-132, reference compound] (Cbz-Leu-Leu-Leu-aldehyde)	–	–	–	–	–	–	–	–	–	–	–	significantly increased αSyn dimerization	–	–	–
Cc1nc(CCCc2ccccc2)oc1N1CCC[C@@H]1C#N [compound 3, (R)-1-(4-Methyl-2-(3-phenylpropyl)oxazol-5-yl)pyrrolidine-2-carbonitrile]	–	–	–	–	88%	88 ± 5%	94%	94 ± 8%	–	–	–	–	–	–	–
Cc1nc(CCCc2ccccc2)oc1N1CCCC[C@H]1C#N [compound 4, (S)-1-(4-Methyl-2-(3-phenylpropyl)oxazol-5-yl)piperidine-2-carbonitrile]	inactive	–	97%	97 ± 2%	–	–	86%	86 ± 19%	> 1e+06 nM	–	–	–	–	–	80 to 85%

Reference: PMC10258805, “Nonpeptidic Oxazole-Based Prolyl Oligopeptidase Ligands with Disease-Modifying Effects on α-Synuclein Mouse Models of Parkinson’s Disease” (Journal of Medicinal Chemistry, 2023)
